According to patent US20200254241A1, “ELECTRICAL METHOD OF DELIVERING HYALURONIC ACID THROUGH THE SKIN” (priority 2017, published 2020):

Tests used:
[1] = Skin images (confocal microscopy) for skin damage after the electrical treatment; set-up: species or system porcine; settings: for skin damage in skin images: electroporation condition 9 plus iontophoresis
Protocol: The combination of such parameters with iontophoresis at 0.2 mA/cm^2 for 20 min has also been corroborated (x 12 vs. passive diffusion).
9. Take photos to make a visual record of skin condition.
The skin images obtained provide more information about the possible skin damage produced by the electroporation treatment.

[2] = In vitro skin deposition of FL-HA (120 kDa) in Franz diffusion cells, fluorimetry; format: in vitro ADME, porcine
Excerpt: The effect of electroporation parameters on skin integrity and transport of hyaluronic acid (at 1% by weight in water) 120 kDa (HA) labeled with fluorescein into the permeabilzed skin was investigated in vitro using electroporation vs. its passive diffusion.
ii) porating mode (100-250 V, shorter pulse lengths and low number of pulses). Franz-diffusion cells were used to evaluate the in vitro delivery.
Porcine ear skin was used for the in vitro studies. It is accepted as a good model for the human skin barrier. Hairs were excised from the skin surface using clippers. The skin was “sliced” so as to obtain samples with an average thickness of 1.5 mm for all samples. Skin was frozen (−20° C.) or stored at 4° C. until use.
The FL-HA was quantified using by fluorimetry. The measurements were performed using a microplate reader. The excitation and emission wavelengths were 494 and 514 nm. The gain was adjusted to 80 in order to obtain better sensitivity of the samples. All samples were put in polystyrene 96-well plates and protected from the light until analysis. Furthermore, a calibration curve was included in every plate.
The aim of the experiments was to quantify penetration of FL-HA (120 kDa) into intact, electroporated porcine ear skin with and without iontophoresis) as a function of duration using the optimal treatment conditions identified in the previous part of the study. Electroporation treatment was performed either as (i) pre-treatment, where electroporation was performed before formulation application, or as (ii) co-treatment, where the elcetroporation treatment was performed simultaneou.sly in the presence of the formulation. All conditions were tested for 10 and 20 min.
3. Condition 9 (Voltage 250 V, Pulse length 15 ms, Pulse interval 50 ms and 9 Pulses), pre-treatment with electroporation
4. Condition 9 (Voltage 250 V, Pulse length 15 ms, Pulse interval 50 ms and 9 Pulses), simultaneous treatment with electroporation and formulation
7. Control: Application of an aqueous solution of FL-HA (120 kDa) formula on (1% w/w) to “untreated” skin. […]

hyaluronic acid [HA 120 kDa]
visual damage to the membrane (skin) ([1]; electroporation alone, 250 V, pulse length 15 ms, pulse interval 50 ms, <10 pulses): no visual damage | skin damage in skin images [1]: lack of significant damage to the skin | skin damage in skin images ([1]; listed as 120 kDa FL-HA formulation): no damage was observed | skin deposition, electroporation plus iontophoresis (CT+I) compared with electroporation alone (CT) ([2]; condition 9, iontophoresis 0.2 mA/cm^2 for 20 min, p<0.05, ANOVA, Student Newman Keuls test): statistically superior | skin deposition, electroporation plus iontophoresis (CT+I) compared with electroporation alone (CT) ([2]; condition 9, iontophoresis 0.2 mA/cm^2 up to 10 min): not increasing the deposition | increase in skin deposition vs. passive diffusion ([2]; electroporation combined with iontophoresis at 0.2 mA/cm^2 for 20 min): 12 x
